The source of these data is publication PMC10156783, “Structural basis for catalysis of human choline/ethanolamine phosphotransferase 1” (Nature Communications, 2023).

The target in data set [1] is T1, hCEPT1 (human choline/ethanolamine phosphotransferase 1) (Homo sapiens, UniProt Q9Y6K0).
T1 construct: gene CEPT1
T1 sequence (Q9Y6K0 1-416): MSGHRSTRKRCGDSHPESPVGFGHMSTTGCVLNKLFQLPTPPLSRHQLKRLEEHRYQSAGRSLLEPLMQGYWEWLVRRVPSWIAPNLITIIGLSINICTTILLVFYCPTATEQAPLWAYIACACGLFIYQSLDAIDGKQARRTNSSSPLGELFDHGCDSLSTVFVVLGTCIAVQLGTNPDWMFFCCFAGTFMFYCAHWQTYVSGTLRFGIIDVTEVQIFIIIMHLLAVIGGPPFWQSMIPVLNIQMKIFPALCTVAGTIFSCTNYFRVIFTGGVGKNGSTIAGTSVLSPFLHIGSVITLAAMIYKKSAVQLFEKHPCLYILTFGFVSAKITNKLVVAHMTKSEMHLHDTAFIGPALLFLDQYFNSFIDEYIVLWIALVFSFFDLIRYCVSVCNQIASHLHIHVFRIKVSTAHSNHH
Kind of data set: isothermal titration calorimetry; cryo-EM structure of the complex. The conditions noted are these: read-out: binding affinity.

Data set [2] addresses T1, hCEPT1 (human choline/ethanolamine phosphotransferase 1). The conditions noted are these: co-substrate diacylglycerol in cholate/POPC micelles; Mg2+ 20 mM; pH 8.0; 37 °C.
Data set [3] concerns the molecule itself. Kind of data set: cryo-EM structure; purified CEPT1 at about 15 mg/ml in 25 mM Tris pH 8.0, 150 mM NaCl, 0.005% GDN; alone (3.7 Å) and with 10 mM CDP-choline (3.8 Å); C2 symmetry applied, a similar map with C1.

As for `C[N+](C)(C)CCOP(=O)(O)OP(=O)([O-])OC[C@H]1O[C@@H](n2ccc(N)nc2=O)[C@H](O)[C@@H]1O` [CDP-choline], the Kd in data set [1] turned out to be 46 µM.
Turning to `NCCOP(=O)(O)OP(=O)(O)OC[C@H]1O[C@@H](n2ccc(N)nc2=O)[C@H](O)[C@@H]1O` [CDP-ethanolamine], the “HPLC assay of CMP release” value in data set [2] is given as “CMP release was approximately doubled when CDP-choline was used as the substrate compared with CDP-ethanolamine”.

B1: human choline/ethanolamine phosphotransferase 1 (CEPT1), full length (enzyme, UniProt Q9Y6K0 1-416, looked up)
chain: MSGHRSTRKRCGDSHPESPVGFGHMSTTGCVLNKLFQLPTPPLSRHQLKRLEEHRYQSAGRSLLEPLMQGYWEWLVRRVPSWIAPNLITIIGLSINICTTILLVFYCPTATEQAPLWAYIACACGLFIYQSLDAIDGKQARRTNSSSPLGELFDHGCDSLSTVFVVLGTCIAVQLGTNPDWMFFCCFAGTFMFYCAHWQTYVSGTLRFGIIDVTEVQIFIIIMHLLAVIGGPPFWQSMIPVLNIQMKIFPALCTVAGTIFSCTNYFRVIFTGGVGKNGSTIAGTSVLSPFLHIGSVITLAAMIYKKSAVQLFEKHPCLYILTFGFVSAKITNKLVVAHMTKSEMHLHDTAFIGPALLFLDQYFNSFIDEYIVLWIALVFSFFDLIRYCVSVCNQIASHLHIHVFRIKVSTAHSNHH
notes: residues 28-407 modelled in each protomer; Homodimer in the cryo-EM structures; membrane protein in GDN detergent; No removal of the tags is described; also called hCEPT1; CEPT1-A; source: FreeStyle 293-F suspension cells, transiently transfected, purified (anti-FLAG M2 resin, NTA resin, SEC in 0.005% GDN)
Regarding B1, in data set [3], the “stoichiometry N” value is 2.
